The numbers were not newly measured in article PMC9632963, “Preclinical characterization and phase I clinical trial of CT053PTSA targets MET, AXL, and VEGFR2 in patients with advanced solid tumors” (Frontiers in Immunology, 2022), which cites them from elsewhere.

Where two headings read alike, the source gives them in different places.

Details of series [1]: method as in PMID 27734291. To be noted: cited from earlier work.
For series [2], the system named is Japanese patients with NSCLC. More on the design: method as in PMID 30718102. As to conditions: cited from earlier work.
The subject of series [3] is MET. Also noted: method as in PMID 18089725. As to conditions: HOP92 cells; read-out: IC50, phosphorylation of MET; cited from earlier work.
Series [4] concerns MET. More on the design: method as in PMID 18089725. To be noted: NCI-H69 cells; read-out: IC50, phosphorylation of MET; cited from earlier work.
For series [5], the system named is patients. Also noted: method as in PMID 30833489. As to conditions: 20/50 patients; cited from earlier work.

As for `COc1cc2nccc(Oc3ccc(NC(=O)C4(C(=O)Nc5ccc(F)cc5)CC4)cc3)c2cc1OC` [cabozantinib], in series [1], the half-life (usually the time needed for the level to fall by half in the phase considered) is 108 to 126 h and the “median Tmax” value is on record as 4 h. Further, the “patients with ≥ grade 3 AEs” value in series [2] (16/23 patients) is 70%. Besides, in series [2], the “AE: diarrhea” value is on record as 78%, the “AE: hypertension” value is 87%, the “AE: increased alanine aminotransferase” value is given as 95% and the “AE: increased aspartate aminotransferase” value is 95%. The “AE: palmar-plantar erythrodysesthesia” value in series [2] is 100%.
Consider `C[C@@H](Oc1cc(-c2cnn(C3CCNCC3)c2)cnc1N)c1c(Cl)ccc(F)c1Cl` [crizotinib], for which the IC50 (usually the concentration that gives 50% inhibition) in series [3] was 16 nM; in series [4], […].
With `Cc1ccc(C(=O)Nc2ccc(Oc3cc4cnn(C)c4cc3-c3cn[nH]c3)c(F)c2)c(=O)n1-c1ccc(F)cc1` [merestinib], the “patients with ≥ grade 3 TRAEs” value in series [5] is given as 40%.
